According to US4267192A, “Method for treating inflammation” (priority 1980, dated 1981):
Where two headings read alike, the source gives them in different places.

Key:
[1] = tested on: carrageenan-induced edema in the hind paw of the rat; assay: rat carrageenan edema test (hind paw); type: in vivo, rat (male Sprague-Dawley); conditions: for Change in paw volume (ml) from 0-3 hr: mean ± S.E.; for % Change in paw edema: vs control
Description: (§1) Vehicle alone is administered as a control. Sixty minutes after drug administration edema is induced by an injection of 0.1 ml. of a 1% carrageenan solution is saline into the subplantar tissue of the rat's right hind paw. Two minutes later, paw volume is measured volumetrically with a plethysmograph and again 3 hours later. The mean volume of swelling for the control group is calculated and compared to the test groups. Percent change in paw edema is calculated and analyzed statistically (unpaired, Student's t-test).

[2] = tested on: carrageenan-induced edema in the hind paw of normal and adrenalectomized rats; assay: carrageenan paw edema in normal and adrenalectomized rats; type: in vivo, rat
Description: as §1
Normal rats received the same doses as adrenalectomized rats.

[3] = tested on: polyarthritis induced by Mycobacterium butyricum or tuberculosis in rats; conditions: rat; cited from earlier work
[4] = tested on: rat stomach (gastric ulcers, gastric swelling); conditions: especially in long-term therapy; in words; cited from earlier work
prostaglandin synthetase = target: T1, prostaglandin synthetase (Ovis aries, UniProt P05979); conditions: in words; cited from earlier work
T1 sequence (P05979 25-600): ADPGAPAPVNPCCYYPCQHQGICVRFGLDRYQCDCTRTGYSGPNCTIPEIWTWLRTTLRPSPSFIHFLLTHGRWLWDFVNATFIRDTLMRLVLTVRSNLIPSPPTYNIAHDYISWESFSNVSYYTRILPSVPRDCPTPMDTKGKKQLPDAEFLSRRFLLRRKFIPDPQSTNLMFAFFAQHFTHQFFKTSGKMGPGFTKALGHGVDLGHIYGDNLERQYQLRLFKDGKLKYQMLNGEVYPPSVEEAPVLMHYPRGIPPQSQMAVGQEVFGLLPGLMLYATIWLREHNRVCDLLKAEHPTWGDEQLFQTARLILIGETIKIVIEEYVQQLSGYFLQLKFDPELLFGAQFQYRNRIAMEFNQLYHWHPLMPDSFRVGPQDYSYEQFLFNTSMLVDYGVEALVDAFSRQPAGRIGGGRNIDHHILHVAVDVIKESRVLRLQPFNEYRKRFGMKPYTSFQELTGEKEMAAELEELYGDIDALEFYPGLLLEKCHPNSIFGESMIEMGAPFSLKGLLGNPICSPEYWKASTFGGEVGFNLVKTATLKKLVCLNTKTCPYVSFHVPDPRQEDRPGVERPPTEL

[5] = tested on: rat stomach (gastric ulcers, gastric swelling); type: in vivo, rat (male Charles River, Sprague-Dawley); conditions: for Number of Animals With Gastric Swelling / Number of Animals With Gastric Ulcers: rat, 4 hours after dosing
Description: The rats are divided into groups 6-10 and dosed by the oral route with test compound, on a mg/kg. body weight basis, or vehicle control, 0.5% carboxymethylcellulose, in a volume of 3 ml. per rat. Four hours after dosing, the rats are decapitated and exsanguinated. Stomachs are removed and examined for gastric swelling and then opened and washed for visual inspection of gastric ulcers. Only one lesion or gastric bleeding is necessary for a positive response. Data is reported quantally.

[6] = tested on: polyarthritis induced by Mycobacterium butyricum or tuberculosis in rats; conditions: rat; for % Change of Left Paw Edema at Day 16 / % Change of Right Paw Edema at Day 4 / Change In Body Weight (mean ± S.E.) 0-16 days / Increase in Left Paw Volume (ml.) 0-16 days / Increase in Right Paw Volume (ml.) 0-4 days: Table 3 group a; for Increase in Left Paw Volume (ml.) 0-16 days / Increase in Right Paw Volume (ml.) 0-4 days: mean ± S.E.
Description: (§2) Polyarthritis is induced in groups of 6-10 Sprague-Dawley rats weighing between 180-220 g. by a subcutaneous injection into the right paw of dessicated Mycobacterium butyricum or tuberculosis (0.5 mg/0.1 ml.) suspended in light mineral oil. […] Both hind paw volumes (ml.) are measured by mercury plethysmograph on day 0 or at the time of injection of the complete adjuvant. Increases in paw volume (viz. edema) are determined for both paws on days 4 and 16. The change in body weight from day 0 to day 16 is also calculated. Statistical analysis of differences in paw edemas and body weight is performed by using the unpaired. Student's t-test.

[7] = tested on: prostaglandin synthesis in gastric mucosa; conditions: background; in words; cited from earlier work
[8] = tested on: established adjuvant arthritis in rats; assay: established adjuvant arthritis, dosing on days 16, 17 and 18; conditions: rat
Description: as §2
The changes in left paw edema are measured at the end of 19 days, 23 days and 30 days.

[9] = oral 180 mg/kg, Table 1 group e
[10] = oral 270 mg/kg, Table 1 group d
[11] = Adrenalectomized Rats, oral 300 mg/kg
[12] = oral 120 mg/kg, Table 1 group f
[13] = oral 240 mg/kg, Table 1 group f
[14] = oral 480 mg/kg, Table 1 group f
[15] = Adrenalectomized Rats, oral 5 mg/kg
[16] = oral 0.33 mg/kg, days 16, 17, 18
[17] = oral 1.00 mg/kg, days 16, 17, 18
[18] = oral 3.00 mg/kg, days 16, 17, 18

CCOC(=O)C=C1c2ccccc2C=Cc2ccccc21 [EDCHA, ethyl(5H-dibenzo[a,d]cyclohepten-5-ylidene)acetate]
oral doses that inhibit carrageenan paw edema ([1]; oral): 10 to 180 mg/kg
Change in paw volume (ml) from 0-3 hr ([1]; oral 20 mg/kg, Table 1 group e): 1.11 ± 0.08 mL
% Change in paw edema ([1]; oral 20 mg/kg, Table 1 group e): -4%
Change in paw volume (ml) from 0-3 hr ([1]; oral 60 mg/kg, Table 1 group e): 0.98 ± 0.06 mL
% Change in paw edema ([1]; oral 60 mg/kg, Table 1 group e): -15%
Change in paw volume (ml) from 0-3 hr [1, 9]: 0.87 ± 0.04 mL
% Change in paw edema [1, 9]: -25%

CC(=O)Oc1ccccc1C(=O)O [Aspirin, aspirin, reference compound]
estimated ED50 (carrageenan paw edema) ([1]; oral): ~110 mg/kg
Change in paw volume (ml) from 0-3 hr ([1]; oral 30 mg/kg, Table 1 group d): 0.63 ± 0.02 mL
% Change in paw edema ([1]; oral 30 mg/kg, Table 1 group d): -28%
Change in paw volume (ml) from 0-3 hr ([1]; oral 90 mg/kg, Table 1 group d): 0.54 ± 0.04 mL
% Change in paw edema ([1]; oral 90 mg/kg, Table 1 group d): -39%
Change in paw volume (ml) from 0-3 hr [1, 10]: 0.29 ± 0.10 mL
% Change in paw edema [1, 10]: -67%
% Inhibition [2, 11]: 34%
Edema (ml) ± S.E. [2, 11]: 0.64 ± .04 mL
animals died ([2]; Adrenalectomized Rats, oral 300 mg/kg, footnote a): 1/6
% Inhibition ([2]; Normal Rats, oral 300 mg/kg): 44%
Mean Edema (ml) ± S.E. ([2]; Normal Rats, oral 300 mg/kg): 0.52 ± .07 mL
ED50 (adjuvant arthritis test), has been assessed [3]: approximately 140 mg/kg
gastric ulcerogenicity [4]: proven gastric ulcerogens
appreciable effects on prostaglandin synthetase activity (prostaglandin synthetase): appreciable effects on prostaglandin synthetase activity

COC(=O)C=C1c2ccccc2C=Cc2ccccc21 [MDCHA, Methyl(5H-dibenzo[a,d]cyclohepten-5-ylidene)acetate]
Change in paw volume (ml) from 0-3 hr ([1]; oral 60 mg/kg, Table 1 group f): 0.68 ± 0.08 mL
% Change in paw edema ([1]; oral 60 mg/kg, Table 1 group f): -8%
Change in paw volume (ml) from 0-3 hr [1, 12]: 0.59 ± 0.08 mL
% Change in paw edema [1, 12]: -20%
Change in paw volume (ml) from 0-3 hr [1, 13]: 0.68 ± 0.10 mL
% Change in paw edema [1, 13]: -8%
Change in paw volume (ml) from 0-3 hr [1, 14]: 0.59 ± 0.07 mL
% Change in paw edema [1, 14]: -20%

COc1ccc2c(c1)c(CC(=O)O)c(C)n2C(=O)c1ccc(Cl)cc1 [Indomethacin, indomethacin, reference compound]
estimated ED50 (carrageenan paw edema) ([1]; oral): ~2.7 mg/kg
Change in paw volume (ml) from 0-3 hr ([1]; oral 1 mg/kg, Table 1 group b): 0.65 ± 0.06 mL
% Change in paw edema ([1]; oral 1 mg/kg, Table 1 group b): -36%
Change in paw volume (ml) from 0-3 hr ([1]; oral 3 mg/kg, Table 1 group b): 0.50 ± 0.07 mL
% Change in paw edema ([1]; oral 3 mg/kg, Table 1 group b): -51%
Change in paw volume (ml) from 0-3 hr ([1]; oral 5 mg/kg, Table 1 group e): 0.54 ± 0.08 mL
% Change in paw edema ([1]; oral 5 mg/kg, Table 1 group e): -53%
Change in paw volume (ml) from 0-3 hr ([1]; oral 9 mg/kg, Table 1 group b): 0.32 ± 0.02 mL
% Change in paw edema ([1]; oral 9 mg/kg, Table 1 group b): -69%
% Inhibition [2, 15]: 59%
Edema (ml) ± S.E. [2, 15]: 0.42 ± .09 mL
% Inhibition ([2]; Normal Rats, oral 5 mg/kg): 60%
Mean Edema (ml) ± S.E. ([2]; Normal Rats, oral 5 mg/kg): 0.42 ± .09 mL
effects on the gastric tract ([5]; dosage levels indicated for treatment of inflammatory conditions): significant effects on the gastric tract
Number of Animals With Gastric Swelling ([5]; oral 2.5 mg/kg): 0/10
Number of Animals With Gastric Ulcers ([5]; oral 2.5 mg/kg): 0/9
Number of Animals With Gastric Swelling ([5]; oral 5.0 mg/kg): 0/10
Number of Animals With Gastric Ulcers ([5]; oral 5.0 mg/kg): 9/10
Number of Animals With Gastric Swelling ([5]; oral 10.0 mg/kg): 0/10
Number of Animals With Gastric Ulcers ([5]; oral 10.0 mg/kg): 10/10
% Change of Left Paw Edema at Day 16 ([6]; oral 0.1 mg/kg daily): +5.1%
% Change of Right Paw Edema at Day 4 ([6]; oral 0.1 mg/kg daily): -31%
Change In Body Weight (mean ± S.E.) 0-16 days ([6]; oral 0.1 mg/kg daily): 16.9 ± 9.0
Increase in Left Paw Volume (ml.) 0-16 days ([6]; oral 0.1 mg/kg daily): 0.82 ± .12 mL
Increase in Right Paw Volume (ml.) 0-4 days ([6]; oral 0.1 mg/kg daily): 1.07 ± .15 mL
% Change of Left Paw Edema at Day 16 ([6]; oral 0.3 mg/kg daily): -33%
% Change of Right Paw Edema at Day 4 ([6]; oral 0.3 mg/kg daily): -30%
Change In Body Weight (mean ± S.E.) 0-16 days ([6]; oral 0.3 mg/kg daily): 25.7 ± 7.8
Increase in Left Paw Volume (ml.) 0-16 days ([6]; oral 0.3 mg/kg daily): 0.52 ± .07 mL
Increase in Right Paw Volume (ml.) 0-4 days ([6]; oral 0.3 mg/kg daily): 1.09 ± .06 mL
% Change of Left Paw Edema at Day 16 ([6]; oral 1.0 mg/kg daily): -55%
% Change of Right Paw Edema at Day 4 ([6]; oral 1.0 mg/kg daily): -42%
Change In Body Weight (mean ± S.E.) 0-16 days ([6]; oral 1.0 mg/kg daily): 36.5 ± 7.9
Increase in Left Paw Volume (ml.) 0-16 days ([6]; oral 1.0 mg/kg daily): 0.35 ± .03 mL
Increase in Right Paw Volume (ml.) 0-4 days ([6]; oral 1.0 mg/kg daily): 0.90 ± .11 mL
% Change of Left Paw Edema at Day 16 ([6]; oral 3.0 mg/kg daily): -65%
% Change of Right Paw Edema at Day 4 ([6]; oral 3.0 mg/kg daily): -37%
Change In Body Weight (mean ± S.E.) 0-16 days ([6]; oral 3.0 mg/kg daily): 49.8 ± 6.2
Increase in Left Paw Volume (ml.) 0-16 days ([6]; oral 3.0 mg/kg daily): 0.27 ± .03 mL
Increase in Right Paw Volume (ml.) 0-4 days ([6]; oral 3.0 mg/kg daily): 0.99 ± .05 mL
estimated ED50 (adjuvant arthritis test) ([6]; oral, daily): ~0.9 mg/kg
gastric ulcerogenicity [4]: proven gastric ulcerogens
inhibitory effect on prostaglandin synthesis in gastric mucosa [7]: marked inhibitory effect on prostaglandin synthesis in gastric mucosa
appreciable effects on prostaglandin synthetase activity (prostaglandin synthetase): appreciable effects on prostaglandin synthetase activity
rats died by the 23rd day ([8]; 3.00 mg/kg, days 16, 17 and 18): six out of ten rats had died
% Change from Control, left paw edema (day 0-19) [8, 16]: -31%
% Change from Control, left paw edema (day 0-23) [8, 16]: +6%
% Change from Control, left paw edema (day 0-30) [8, 16]: -6%
Increase in left paw edema ml. (day 0-19) [8, 16]: 0.70 ± 0.11 mL
Increase in left paw edema ml. (day 0-23) [8, 16]: 1.02 ± 0.14 mL
Increase in left paw edema ml. (day 0-30) [8, 16]: 1.41 ± 0.20 mL
% Change from Control, left paw edema (day 0-19) [8, 17]: -40%
% Change from Control, left paw edema (day 0-23) [8, 17]: +4%
% Change from Control, left paw edema (day 0-30) [8, 17]: -22%
Increase in left paw edema ml. (day 0-19) [8, 17]: 0.62 ± 0.05 mL
Increase in left paw edema ml. (day 0-23) [8, 17]: 1.00 ± 0.06 mL
Increase in left paw edema ml. (day 0-30) [8, 17]: 1.18 ± 0.10 mL
% Change from Control, left paw edema (day 0-19) [8, 18]: -60%
Increase in left paw edema ml. (day 0-19) [8, 18]: 0.41 ± 0.06 mL
deaths (day 0-23) [8, 18]: 6/10
deaths (day 0-30) [8, 18]: 6/10
